From ChEMBL document CHEMBL4819070, “Synthesis and biological evaluation of 2-(4-alkoxy-3-cyano)phenylpyrimidine derivatives with 4-amino or 4-hydroxy as a pharmacophore element binding with xanthine oxidase active site” (Bioorg Med Chem, 2021)
Activity calls are given as the source filed them. The calls are words filed in the database; no cut-off is given here.

What was measured:
[1] = target: T1, Xanthine dehydrogenase/oxidase (Bos taurus, UniProt P80457); experiment: Inhibition of bovine milk xanthine oxidase assessed as reduction in uric acid formation using xanthine as substrate preincubated for 15 mins followed by substrate addition measured for every 30 sec by spectrophotometric analysis
T1 sequence (P80457 whole entry): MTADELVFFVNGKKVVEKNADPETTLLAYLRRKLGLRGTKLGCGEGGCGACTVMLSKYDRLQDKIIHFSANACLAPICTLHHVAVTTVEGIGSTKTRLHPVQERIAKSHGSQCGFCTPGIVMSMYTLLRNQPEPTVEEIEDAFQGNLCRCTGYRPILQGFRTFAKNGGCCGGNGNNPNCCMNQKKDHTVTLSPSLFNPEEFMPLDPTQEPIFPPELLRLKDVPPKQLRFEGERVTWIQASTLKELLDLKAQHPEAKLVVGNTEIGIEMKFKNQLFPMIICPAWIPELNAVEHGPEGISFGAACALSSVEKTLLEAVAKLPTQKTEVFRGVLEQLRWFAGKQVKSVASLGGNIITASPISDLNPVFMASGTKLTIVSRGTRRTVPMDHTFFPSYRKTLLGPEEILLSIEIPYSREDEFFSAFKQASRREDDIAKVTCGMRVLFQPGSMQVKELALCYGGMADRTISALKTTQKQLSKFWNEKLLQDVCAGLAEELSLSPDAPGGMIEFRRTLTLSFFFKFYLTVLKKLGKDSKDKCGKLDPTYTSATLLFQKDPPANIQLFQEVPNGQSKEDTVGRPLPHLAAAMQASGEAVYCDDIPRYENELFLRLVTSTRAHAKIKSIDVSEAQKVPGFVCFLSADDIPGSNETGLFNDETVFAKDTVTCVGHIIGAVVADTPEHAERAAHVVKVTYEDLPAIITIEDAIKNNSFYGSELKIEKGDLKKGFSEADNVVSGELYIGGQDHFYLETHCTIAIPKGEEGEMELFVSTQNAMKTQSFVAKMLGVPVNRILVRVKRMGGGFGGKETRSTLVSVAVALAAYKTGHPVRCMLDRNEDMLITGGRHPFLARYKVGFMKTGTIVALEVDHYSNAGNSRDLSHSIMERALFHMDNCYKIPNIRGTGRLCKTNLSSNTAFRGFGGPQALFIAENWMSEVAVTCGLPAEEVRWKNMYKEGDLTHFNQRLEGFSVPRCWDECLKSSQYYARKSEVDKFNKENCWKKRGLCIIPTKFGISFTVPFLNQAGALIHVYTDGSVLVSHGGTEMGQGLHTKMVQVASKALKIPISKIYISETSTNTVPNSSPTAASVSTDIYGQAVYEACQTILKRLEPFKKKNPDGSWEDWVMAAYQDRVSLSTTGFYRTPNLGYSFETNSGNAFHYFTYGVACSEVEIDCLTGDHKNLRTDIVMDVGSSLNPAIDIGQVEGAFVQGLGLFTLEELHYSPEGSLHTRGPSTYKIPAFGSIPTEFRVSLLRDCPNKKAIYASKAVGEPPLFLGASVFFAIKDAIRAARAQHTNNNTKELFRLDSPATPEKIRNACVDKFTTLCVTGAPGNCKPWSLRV

[2] = target: T1, Xanthine dehydrogenase/oxidase; experiment: Inhibition of bovine milk xanthine oxidase assessed as reduction in uric acid formation at 10 uM using xanthine as substrate preincubated for 15 mins followed by substrate addition measured for every 30 sec by spectrophotometric analysis relative to control; conditions: cattle, 0.5 min
Rattus norvegicus [3] = experiment: Hypouricemic activity in Sprague-Dawley rat model of Potassium oxonate-induced acute hyperuricemia assessed as decrease in serum uric acid at 10 mg/kg, IG administered after potassium oxonate treatment and measured upto 8 hrs; assay type: functional, organism-based; conditions: time hrs <=8
[4] = target: T1, Xanthine dehydrogenase/oxidase; experiment: Inhibition of bovine milk xanthine oxidase assessed as increase in Km at 0.01 to 0.06 uM by Lineweaver-Burk plot analysis; conditions: cattle, dose 0.01-0.06 µM
Rattus norvegicus [5] = experiment: Hypouricemic activity in Sprague-Dawley rat model of Potassium oxonate-induced acute hyperuricemia assessed as decrease in serum uric acid AUC (1 to 8 hrs) at 30 to 90 mg/kg, IG administered after potassium oxonate treatment and measured at 1 hr; assay type: functional, organism-based; conditions: dose 30-90 mg/kg
Rattus norvegicus [6] = experiment: Hypouricemic activity in Sprague-Dawley rat model of Potassium oxonate-induced acute hyperuricemia assessed as decrease in serum uric acid at 30 to 90 mg/kg, IG administered after potassium oxonate treatment and measured at 1 hr; assay type: functional, organism-based; conditions: dose 30-90 mg/kg
[7] = target: T1, Xanthine dehydrogenase/oxidase; experiment: Inhibition of bovine milk xanthine oxidase assessed as decrease in Vmax at 0.01 to 0.06 uM by Lineweaver-Burk plot analysis; conditions: cattle, dose 0.01-0.06 µM
[8] = target: T1, Xanthine dehydrogenase/oxidase; experiment: Mixed type inhibition of bovine milk xanthine oxidase assessed as inhibitory constant using xanthine as substrate preincubated for 15 mins followed by substrate addition measured for every 30 sec by spectrophotometric analysis

| SMILES | IC50 [1] [nM] | other results |
| --- | --- | --- |
| N#Cc1cc(-c2nc(N)cc(O)n2)ccc1OCC1CCCCC1 | 275 | – |
| N#Cc1cc(-c2nccc(O)n2)ccc1OCc1ccc(Br)cc1 | 95 | – |
| CC(C)(C)c1ccc(COc2ccc(-c3nccc(O)n3)cc2C#N)cc1 | 282 | – |
| CC(C)COc1ccc(-c2ncccn2)cc1C#N | 1610 | – |
| N#Cc1cc(-c2nccc(O)n2)ccc1OCc1ccc(F)cc1 | 75 | – |
| Cc1ccc(COc2ccc(-c3nccc(O)n3)cc2C#N)cc1 | 79 | – |
| COc1ccc(COc2ccc(-c3nccc(O)n3)cc2C#N)cc1 | 193 | – |
| N#Cc1cc(-c2ncccn2)ccc1OCC1CCCCC1 | 4450 | – |
| N#Cc1cc(-c2nccc(O)n2)ccc1O | – | inhibition at 10 µM [2]: < 50% |
| N#Cc1cc(-c2nccc(O)n2)ccc1OCc1ccc(Cl)cc1 | 148 | – |
| N#Cc1cc(-c2nccc(O)n2)ccc1OCC1CCCCC1 | 73 | – |
| N#Cc1cc(-c2nccc(N)n2)ccc1OCC1CCCCC1 | 539 | – |
| N#Cc1cc(-c2nc(N)cc(O)n2)ccc1OCc1ccccc1 | 209 | – |
| CC(C)=COc1ccc(-c2nccc(O)n2)cc1C#N | 55 | – |
| N#Cc1cc(-c2ncccn2)ccc1OCc1ccccc1 | 1950 | – |
| N#Cc1cc(-c2nccc(N)n2)ccc1OCc1ccccc1 | 347 | – |
| CC(C)CCOc1ccc(-c2nccc(O)n2)cc1C#N | 46 | Activity (Rattus norvegicus [3]): inactive; inhibition (INH) [4]: Active; Activity (Rattus norvegicus [5]): Active; Activity (Rattus norvegicus [6]): Active; inhibition (INH) [7]: Active; Ki [8]: 18 nM |
| N#Cc1cc(-c2nccc(O)n2)ccc1OCc1ccccc1 | 66 | – |
| N#Cc1cc(-c2nccc(O)n2)ccc1OCc1cccc(F)c1 | 77 | – |
| CC(C)Oc1ccc(-c2nccc(O)n2)cc1C#N | 74 | – |
| CC(C)COc1ccc(-c2nc(N)cc(O)n2)cc1C#N | 130 | – |
| CC(C)COc1ccc(-c2nccc(N)n2)cc1C#N | 262 | – |
| COc1ccc(-c2nccc(O)n2)cc1C#N | 179 | – |
| CC(C)COc1ccc(-c2nccc(O)n2)cc1C#N | 69 | – |
| N#Cc1cc(-c2nccc(O)n2)ccc1OCc1ccccc1F | 60 | – |
| N#Cc1cc(-c2nccc(O)n2)ccc1OCC1CC1 | 93 | – |
